Data published in the CheMixHub viscosity set.
Several values for one entry are separate records, joined by “and”; a condition that tells them apart may be missing. Equal values may be shown once.

Tests used:
[1] = xn = mol fraction of the nth substance listed

CCCCCC[n+]1ccn(C)c1.[I-]
101 kPa
Details	viscosity [mPa·s]
293.15 K	2633
298.15 K	1742
303.15 K	1175
308.15 K	801.8
313.15 K	563.5
318.15 K	404.7
323.15 K	278.8

CCNc1ccccc1
Details	viscosity
293.15 K, 101 kPa	2.282 mPa·s
298 K, 101 kPa	1.947 mPa·s
298 K, 101.3 kPa	1.952 mPa·s
298.15 K, 101 kPa	1.971 mPa·s and 1.75 mPa·s and 1.959 mPa·s
303 K, 101 kPa	1.741 mPa·s
303 K, 101.3 kPa	1.71 mPa·s
303.15 K, 100 kPa	1.742 mPa·s
308 K, 101 kPa	1.549 mPa·s
308 K, 101.3 kPa	1.559 mPa·s
308.15 K, 101.33 kPa	1.5 mPa·s
313 K, 101 kPa	1.392 mPa·s
313 K, 101.3 kPa	1.389 mPa·s
313.15 K, 101 kPa	1.405 mPa·s and 1.391 mPa·s and 1.34 mPa·s
318 K, 101 kPa	1.263 mPa·s
318 K, 101.3 kPa	1.251 mPa·s
318.15 K, 101 kPa	1.264 mPa·s
323.15 K, 101 kPa	1.146 mPa·s and 1.07 mPa·s and 1.124 mPa·s

ClCCCl
Details	viscosity
293.15 K, 101 kPa	0.8397 mPa·s
298 K, 101.33 kPa	0.77 mPa·s
303 K, 101.33 kPa	0.722 mPa·s
303.15 K, 101.3 kPa	0.73 mPa·s
303.15 K, 101.33 kPa	0.7295 mPa·s and 0.7295 mPa·s
308.15 K, 100 kPa	0.682 mPa·s
308.15 K, 101 kPa	0.6929 mPa·s
313 K, 101.33 kPa	0.639 mPa·s
323 K, 101.33 kPa	0.573 mPa·s
323.15 K, 101 kPa	0.5724 mPa·s

ClCCl
Details	viscosity
293.15 K, 101 kPa	0.428 mPa·s
298 K, 101 kPa	0.433 mPa·s
298.15 K, 101.33 kPa	0.38 mPa·s and 0.406 mPa·s and 0.401 mPa·s
303.15 K, 101.3 kPa	0.394 mPa·s
303.15 K, 101.33 kPa	0.369 mPa·s
308.15 K, 101.33 kPa	0.362 mPa·s

O=S(=O)(O)O
101 kPa
Details	viscosity [mPa·s]
293.15 K	28.7
313.15 K	16
323.15 K	12.5

CC(C)C[C@H](NC(=O)[C@H](C)N)C(=O)O + O
viscosity [mPa·s], [1], 101 kPa
Details	x1 = 3.33e-05	x1 = 7.01e-05	x1 = 0.000104	x1 = 0.000146	x1 = 0.000174	x1 = 0.0002197	x1 = 0.0002561	x1 = 0.0002862	x1 = 0.0003157	x1 = 0.0003701
305.15 K	0.7759	0.7781	0.7785	0.7806	0.7826	0.7869	0.796	0.8042	0.8098	0.8149
310.15 K	0.7079	0.7086	0.7126	0.7129	0.7165	0.7198	0.7242	0.7292	0.7334	0.7359
315.15 K	0.6492	0.6505	0.6525	0.6559	0.6596	0.6605	0.6629	0.6678	0.6692	0.6709

CCC(=O)N(CC)CC + O
[1], 298.16 K, 101 kPa
Details	viscosity [mPa·s]
x2 = 0.0649	1.31
x2 = 0.1684	1.49
x2 = 0.2965	1.79
x2 = 0.4448	2.27
x2 = 0.5923	2.93
x2 = 0.7652	3.86
x2 = 0.8001	3.91
x2 = 0.8352	3.83
x2 = 0.8933	3.34
x2 = 0.9093	3.03

CCC[n+]1ccn(C)c1.N[C@@H](CO)C(=O)[O-] + O
Details	viscosity [mPa·s]
[1], 308.15 K, 100 kPa, x2 = 0.0574	996.5

CC[NH+](C)CC.CS(=O)(=O)[O-] + O
Details	viscosity [mPa·s]
[1], 318.15 K, 100 kPa, x1 = 0.4263	15.65

O=S(=O)(O)O + O
[1], 100 kPa
Details	viscosity [mPa·s]
303.15 K, x1 = 0.007147	0.8615
313.15 K, x1 = 0.0566	1.125

CCOC=O + O=C1CCCO1
[1], 298.15 K, 101.33 kPa
Details	viscosity [mPa·s]
x1 = 0.0501	1.571
x1 = 0.0994	1.446
x1 = 0.1504	1.333
x1 = 0.2017	1.23
x1 = 0.2492	1.143
x1 = 0.3001	1.057
x1 = 0.4017	0.895
x1 = 0.4509	0.845
x1 = 0.503	0.783
x1 = 0.5488	0.732
x1 = 0.6028	0.677
x1 = 0.7138	0.576
x1 = 0.7502	0.547
x1 = 0.7894	0.51
x1 = 0.8503	0.47
x1 = 0.9	0.439
x1 = 0.9501	0.412

O=S(=O)(O)O + O=[N+]([O-])c1ccccc1
[1], 303.15 K, 101 kPa
Details	viscosity [mPa·s]
x1 = 0.2497	3.5
x1 = 0.4023	5.75
x1 = 0.562	9.38
x1 = 0.656	12.28
x1 = 0.6792	12.94
x1 = 0.7132	13.56
x1 = 0.796	16.17
x1 = 0.8755	18.31
x1 = 0.9516	18.96
x1 = 0.9542	18.56
x1 = 0.9702	19.68
x2 = 0.0128	19.92

CCNc1ccccc1 + Oc1ccccc1
viscosity [mPa·s], [1], 101 kPa
Details	298.15 K	313.15 K	323.15 K
x1 = 0.0794	8.63	4.35	3.14
x1 = 0.1373	8.82	4.53	3.16
x1 = 0.206	8.53	4.34	3.06
x1 = 0.2495	8.18	4.26	3.13
x1 = 0.3418	7.28	3.96	2.97
x1 = 0.4372	5.98	3.41	2.54
x1 = 0.5	5.1	2.99	2.15
x1 = 0.5381	4.77	2.78	2.1
x1 = 0.6445	3.68	2.31	1.76
x1 = 0.7005	3.27	2.06	1.62
x1 = 0.7565	2.9	1.88	1.54
x1 = 0.8744	2.22	1.55	1.24
